# Data from patent US20120083522A1, “MODULATION OF INFLAMMATORY RESPONSES BY FACTOR XI” (Isis Pharmaceuitcals, inc., priority 2009, published 2012).
# In the oligonucleotide strings, read from the 5' end, every base follows the letter of its sugar. An asterisk marks phosphorothioate; unmarked linkages are phosphodiester. Other units and linkages are bracketed, terminal groups are in braces. A string of capitals states the bases alone. e = 2'-O-(2-methoxyethyl) (MOE); [5mC] = 5-methylcytosine; d = 2'-deoxy (DNA)
# Experiments:
# [1] = test system: human Factor XI mRNA; assay: Antisense inhibition in HepG2 cells by microwalk gapmers, 8,000 nM, electroporation (Example 14); format: cell-based; conditions: HepG2 cells, 8,000 nM
# How it was run: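 HepG2 cells electroporated with 8,000 nM 2′-MOE phosphorothioate gapmer (5-10-5, 5-8-5 or 6-8-6). Factor XI mRNA measured after ~24 h by qRT-PCR, normalised to RIBOGREEN total RNA. Reported as percent inhibition versus untreated cells.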
# [2] = set-up: species or system Sprague-Dawley rats; conditions: rat, in vivo, sc, 20 mg/kg
# Protocol: The concentration of the full-length oligonucleotide as well as the total oligonucleotide concentration (including the degraded form) was measured. The method used is a modification of previously published methods (Leeds et al., 1996; Geary et al., 1999) which consist of a phenol-chloroform (liquid-liquid) extraction followed by a solid phase extraction. An internal standard (ISIS 355868, a 27-mer 2′-O-methoxyethyl modified phosphorothioate oligonucleotide, […], designated herein as SEQ ID NO: 270) was added prior to extraction. […] The results are presented in Tables 98 and 99, expressed as μg/g liver or kidney tissue.
# [3] = test system: human Factor XI mRNA; assay: Antisense inhibition in HepG2 cells by microwalk gapmers, 75 nM, lipofectin (Example 3); format: cell-based; conditions: HepG2 cells, 75 nM, oligonucleotides targeted to nucleobases 1275 to 1318 of SEQ ID NO: 1
# How it was run: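 HepG2 cells (10,000 per well) were transfected with 75 nM gapmer using lipofectin and treated for about 24 h. Factor XI mRNA was quantified by real-time PCR, normalized to RiboGreen total RNA and expressed as percent inhibition versus untreated controls.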
# [4] = Cynomolgus monkeys: body and organ weights (Example 29); format: in vivo; conditions: for Body weight: escalating doses 5, 10, 25 mg/kg s.c.
# Protocol: (§1) Groups, each consisting of two male and three female monkeys, were injected subcutaneously with ISIS 416838, ISIS 416850, ISIS 416858, ISIS 416864, or ISIS 417002 in escalating doses. Antisense oligonucleotide was administered to the monkeys at 5 mg/kg three times per a week for week 1; 5 mg/kg twice per week for weeks 2 and 3; 10 mg/kg three times per week for week 4; 10 mg/kg twice per week for weeks 5 and 6; 25 mg/kg three times per week for week 7; and 25 mg/kg twice per week for weeks 8, 9, 10, 11, and 12. One control group, consisting of two male and three female monkeys, was injected subcutaneously with PBS according to the same dosing regimen. An additional experimental group, consisting of two male and three female monkeys, was injected subcutaneously with ISIS 416850 in a chronic, lower dose regimen. Antisense oligonucleotide was administered to the monkeys at 5 mg/kg three times per week for week 1; 5 mg/kg twice per week for week 2 and 3; 10 mg/kg three times per week for week 4; and 10 mg/kg twice per week for weeks 5 to 12. Body weights were measured weekly. Blood samples were collected 14 days and 5 days before the start of treatment and subsequently once per week for Factor XI protein activity analysis in plasma and measurement of various hematologic factors. On day 85, the monkeys were euthanized by exsanguination while under deep anesthesia, and organs harvested for further analysis.
# Body weights were taken once weekly throughout the dosing regimen. […] Organ weights were taken after the animals were euthanized and livers, kidneys and spleens were harvested and weighed. […] The ISIS oligonucleotide, ISIS 416850, given with the chronic dose regimen is distinguished from the other oligonucleotides with an asterisk (*).
# [5] = test system: Factor XI protein; assay: Cynomolgus monkeys: plasma Factor XI protein ELISA (Example 30); format: in vivo; conditions: cynomolgus monkeys, Example 30
# Protocol: (§2) Groups, each consisting of two male and two female monkeys, were injected subcutaneously with 25 mg/kg of ISIS 416850, ISIS 449709, ISIS 445522, ISIS 449710, ISIS 449707, ISIS 449711, ISIS 449708, 416858 and ISIS 445531. Antisense oligonucleotide was administered to the monkeys at 25 mg/kg three times per week for week 1 and 25 mg/kg twice per week for weeks 2 to 8. A control group, consisting of two male and two female monkeys was injected subcutaneously with PBS according to the same dosing regimen. Body weights were taken 14 days and 7 days before the start of treatment and were then measured weekly throughout the treatment period. Blood samples were collected 14 days and 5 days before the start of treatment and subsequently several times during the dosing regimen for measurement of various hematologic factors. On day 55, the monkeys were euthanized by exsanguination while under deep anesthesia, and organs harvested for further analysis.
# (§3) Plasma samples from all monkey groups taken on different days were analyzed by a sandwich-style ELISA assay (Affinity Biologicals Inc.) using an affinity-purified polyclonal anti-Factor XI antibody as the capture antibody and a peroxidase-conjugated polyclonal anti-Factor XI antibody as the detecting antibody. Monkey plasma was diluted 1:50 for the assay. Peroxidase activity was expressed by incubation with the substrate o-phenylenediamine. The color produced was quantified using a microplate reader at 490 nm and was considered to be proportional to the concentration of Factor XI in the samples.
# The results are presented in Table 148, expressed as percentage reduction relative to that of the PBS control.
# [6] = test system: IL-1β, IL-6, IFN-γ, TNF-α, IL-8, MIP-1α, MCP-1, MIP-10, RANTES; assay: Cynomolgus monkeys: cytokine and chemokine assays (Example 30); format: in vivo
# Protocol: as §2
# Blood samples obtained from all monkey groups were sent to Pierce Biotechnology (Woburn, Mass.) for measurements of chemokine and cytokine levels. Levels of IL-1β, IL-6, IFN-γ, and TNF-α were measured using the respective primate antibodies and levels of IL-8, MIP-1α, MCP-1, MIP-10 and RANTES were measured using the respective cross-reacting human antibodies. Measurements were taken 14 days before the start of treatment and on day 55, when the monkeys were euthanized.
# [7] = test system: Factor XI protein; assay: Cynomolgus monkeys: plasma Factor XI protein ELISA (Example 29); format: in vivo; conditions: for Inhibition of Factor XI protein relative to the PBS control: escalating doses 5, 10, 25 mg/kg s.c.
# Protocol: as §1, §3
# The results are presented in Table 122, expressed as percentage reduction relative to that of the PBS control.
# [8] = Cynomolgus monkeys: hematology assays (Example 29); format: in vivo
# Protocol: as §1
# The ISIS oligonucleotide, ISIS 416850, given with the chronic dose regimen is distinguished from the other oligonucleotides with an asterisk (*).
# [9] = test system: Factor XI mRNA; assay: Cynomolgus monkeys, 25 mg/kg: liver Factor XI RNA analysis (Example 30); format: in vivo; conditions: cynomolgus monkeys, day 55, in comparison to the PBS control
# Protocol: as §2
# On day 55, RNA was extracted from liver tissue for real-time PCR analysis of Factor XI using primer probe set LTS00301. Results are presented as percent inhibition of Factor XI, relative to PBS control.
# [10] = Tolerability in CD1 mice: body and organ weight (Example 25); format: in vivo; conditions: 50 mg/kg s.c. twice per week for 6 weeks; for Kidney weight as percentage of body weight / Liver weight as percentage of body weight / Spleen weight as percentage of body weight: end of study
# [11] = day −14 (before start of treatment)
substance,measurement,setting,value
"416848 (antisense CACAGTTTCTGGCAGGCCTC; 5-10-5 gapmer, wing sugar chemistry not given here, further chemistry not given here) [compound 416848]",Percent inhibition of human Factor XI mRNA levels,[1],87%
same,Half-life in the liver and kidney,[2],24 days
same,% inhibition of human Factor XI mRNA levels,[3],86%
"416852 (antisense TGGTGCACAGTTTCTGGCAG; 5-10-5 gapmer, wing sugar chemistry not given here, further chemistry not given here) [compound 416852]",Percent inhibition of human Factor XI mRNA levels,[1],87%
same,Half-life in the liver and kidney,[2],28 days
same,% inhibition of human Factor XI mRNA levels,[3],84%
ISIS 416858: gapmer of Table 8 (antisense eA*e[5mC]*eG*eG*e[5mC]*dA*dT*dT*dG*dG*dT*dG*d[5mC]*dA*d[5mC]*eA*eG*eT*eT*eT),spleen weight (in words),[4]; Example 29,increase in spleen weight
same,Kidney weight,[4]; after euthanasia,13 g
same,Liver weight,[4]; after euthanasia,60 g
same,Spleen weight,[4]; after euthanasia,12 g
same,Body weight,[4]; day 1,2912 g
same,Body weight,[4]; day 8,2740 g
same,Body weight,[4]; day 15,2760 g
same,Body weight,[4]; day 22,2800 g
same,Body weight,[4]; day 29,2763 g
same,Body weight,[4]; day 36,2584 g
same,Body weight,[4]; day 43,2607 g
same,Body weight,[4]; day 50,2646 g
same,Body weight,[4]; day 57,2617 g
same,Body weight,[4]; day 64,2618 g
same,Body weight,[4]; day 71,2865 g
same,Body weight,[4]; day 78,2713 g
same,Factor XI protein levels (in words),[5],time-dependent decrease in protein levels
same,IL-1β level,"[6]; 25 mg/kg s.c., day 55",28 pg/mL
same,MIP-1β level,"[6]; 25 mg/kg s.c., day 55",47 pg/mL
same,IL-1β level,[6]; [11],103 pg/mL
same,MIP-1β level,[6]; [11],37 pg/mL
same,Factor XI protein levels (in words),[7]; Example 29,time-dependent decrease in protein levels
same,Inhibition of Factor XI protein relative to the PBS control,[7]; day 8,6%
same,Inhibition of Factor XI protein relative to the PBS control,[7]; day 15,16%
same,Inhibition of Factor XI protein relative to the PBS control,[7]; day 22,23%
same,Inhibition of Factor XI protein relative to the PBS control,[7]; day 29,28%
same,Inhibition of Factor XI protein relative to the PBS control,[7]; day 36,35%
same,Inhibition of Factor XI protein relative to the PBS control,[7]; day 43,39%
same,Inhibition of Factor XI protein relative to the PBS control,[7]; day 50,49%
same,Inhibition of Factor XI protein relative to the PBS control,[7]; day 57,60%
same,Inhibition of Factor XI protein relative to the PBS control,[7]; day 64,68%
same,Inhibition of Factor XI protein relative to the PBS control,[7]; day 71,71%
same,Inhibition of Factor XI protein relative to the PBS control,[7]; day 78,73%
same,Inhibition of Factor XI protein relative to the PBS control,[7]; day 85,78%
same,Inhibition of Factor XI protein relative to the PBS control,[7]; day −5 (before treatment),0%
same,Inhibition of Factor XI protein relative to the PBS control,[7]; day −14 (before treatment),0%
same,platelet count,[8]; day 8,391000 µL⁻¹
same,platelet count,[8]; day 15,400000 µL⁻¹
same,platelet count,[8]; day 22,316000 µL⁻¹
same,platelet count,[8]; day 29,336000 µL⁻¹
same,platelet count,[8]; day 36,371000 µL⁻¹
same,platelet count,[8]; day 43,342000 µL⁻¹
same,platelet count,[8]; day 50,331000 µL⁻¹
same,platelet count,[8]; day 57,333000 µL⁻¹
same,platelet count,[8]; day 64,295000 µL⁻¹
same,platelet count,[8]; day 71,286000 µL⁻¹
same,platelet count,[8]; day 78,262000 µL⁻¹
same,platelet count,[8]; day 85,267000 µL⁻¹
same,platelet count,[8]; day −5,463000 µL⁻¹
same,platelet count,[8]; day −14,419000 µL⁻¹
same,Factor XI mRNA in liver (in words),[9],significant reduction of Factor XI mRNA
ISIS 445522: microwalk gapmer of Table 51 (antisense eG*e[5mC]*eA*e[5mC]*eA*dG*dT*dT*dT*d[5mC]*dT*dG*dG*e[5mC]*eA*eG*eG*e[5mC]),Factor XI protein levels (in words),[5],time-dependent decrease in protein levels
same,IL-1β level,"[6]; 25 mg/kg s.c., day 55",341 pg/mL
same,MIP-1β level,"[6]; 25 mg/kg s.c., day 55",63 pg/mL
same,IL-1β level,[6]; [11],188 pg/mL
same,MIP-1β level,[6]; [11],27 pg/mL
same,Body weight (increase over PBS control weight before start of treatment),[10],11 g
same,Kidney weight as percentage of body weight,[10],1.7%
same,Liver weight as percentage of body weight,[10],6%
same,Spleen weight as percentage of body weight,[10],0.4%
same,Factor XI mRNA in liver (in words),[9],significant reduction of Factor XI mRNA
ISIS 445531: microwalk gapmer of Table 51 (antisense eG*eG*e[5mC]*eA*eT*dT*dG*dG*dT*dG*d[5mC]*dA*d[5mC]*eA*eG*eT*eT*eT),IL-1β level,"[6]; 25 mg/kg s.c., day 55",155 pg/mL
same,MIP-1β level,"[6]; 25 mg/kg s.c., day 55",84 pg/mL
same,IL-1β level,[6]; [11],101 pg/mL
same,MIP-1β level,[6]; [11],22 pg/mL
same,Body weight (increase over PBS control weight before start of treatment),[10],10 g
same,Kidney weight as percentage of body weight,[10],1.5%
same,Liver weight as percentage of body weight,[10],6%
same,Spleen weight as percentage of body weight,[10],0.5%
same,Factor XI mRNA in liver (in words),[9],significant reduction of Factor XI mRNA
ISIS 449709: microwalk gapmer of Table 53 (antisense eG*e[5mC]*eA*e[5mC]*dA*dG*dT*dT*dT*d[5mC]*dT*dG*dG*d[5mC]*eA*eG*eG*e[5mC]),Factor XI protein levels (in words),[5],time-dependent decrease in protein levels
same,IL-1β level,"[6]; 25 mg/kg s.c., day 55",181 pg/mL
same,MIP-1β level,"[6]; 25 mg/kg s.c., day 55",47 pg/mL
same,IL-1β level,[6]; [11],137 pg/mL
same,MIP-1β level,[6]; [11],14 pg/mL
same,Factor XI mRNA in liver (in words),[9],significant reduction of Factor XI mRNA
ISIS 449710: microwalk gapmer of Table 53 (antisense e[5mC]*eA*e[5mC]*dA*dG*dT*dT*dT*d[5mC]*dT*dG*dG*d[5mC]*eA*eG*eG),IL-1β level,"[6]; 25 mg/kg s.c., day 55",286 pg/mL
same,MIP-1β level,"[6]; 25 mg/kg s.c., day 55",53 pg/mL
same,IL-1β level,[6]; [11],271 pg/mL
same,MIP-1β level,[6]; [11],18 pg/mL
same,Factor XI mRNA in liver (in words),[9],significant reduction of Factor XI mRNA
